Reference: patent US10369159B2, “Estrogen receptor β partial agonist having estrogen receptor α inhibitory effect, and gynecological disease therapeutic agent using same” (NOBELPHARMA CO., LTD., priority 2015, dated 2019)
Values joined by “and” are separate entries in the source; they are usually repeats but may differ in a detail not shown here. Equal values may be shown once.

Legend:
[1] = tested on: rat endometriosis model (grafted uterine strips); experiment: Endometriosis inhibiting activity: grafted uterine strip weight in ovariectomized, E2-treated rat endometriosis model; format: in vivo; settings: for Total wet weight of the grafted uterine strips: left and right strips including abdominal wall, vehicle 0.4785 g, Sham 0.2596 g; for Suppression rate of grafted uterine strip weight (% ± SE): vs vehicle control, strip weight after subtracting Sham abdominal wall; for Suppression rate of the grafted uterine strip (average value): vehicle control group set as 0%, Table 2
Experimental: Buprenorphine hydrochloride (Lepetan injection 0.3 mg, Otsuka Pharmaceutical Co., Ltd., […] of which was diluted to 6.7 times with a physiological saline solution to provide 0.03 mg/mL solution when using) was administered subcutaneously into the back of the rats at a dose of 0.0024 mg/body (0.08 mL/body). The administration period was two days, which includes twice before and after the model preparation on the day when the model was prepared, and twice per day on the next day. It should be noted that the dosage amount of 0.0024 mg/body was the one that satisfied a recommended dose of 0.01 mg/kg in […] (0.0096 mg/kg) (estimated weight upon model preparation: 180 to 240 g).
Under 2% inhalation anesthesia, left and right flanks of the rats (operation site) were shaved, and the skin of one of the flasks was dissected. After peeling off the skin, the muscle layer was cut to open using a retractor so as to protrude it to the outside of the body with fat tissue around the ovary, then the fallopian tubes were ligated with a silk thread (sterile suture) followed by removing the ovary including the fat tissue. The peeled muscle layer and one part of the peritoneum were sutured with silk thread (sterile suture), then kanamycin solution, antibiotics, (manufactured by Meiji Seika Pharma Co., Ltd., “Meiji,” kanamycin sulfate injection of 1000 mg was diluted to 5 mg/mL with injection solvent) was applied to the operation site. The dissected skin was sutured with silk thread (sterile suture). Another ovary in the opposite side was removed in the same manner. At the time of the operation, sterile gloves were used, and surgical instruments used were sterilized by an autoclave and beads sterilizer. The surgical area was shaved with an electric clipper followed by disinfected with isodine alcohol and covered with a sterile bedsheet and a covering cloth.
Since the day of ovariectomy, after it was performed, E2 (β-Estradiol, 3 μg/mL animal) was subcutaneously administered to the back of the rats every day for 2 weeks. E2 (3 μg/mL animal) was administered in the same manner during 4 weeks after model preparation on the date that the model was prepared.
Thirteen days after ovariectomy (day 0 counting), the rats were divided into four groups (N=8) as the total weight on the grouping day was uniform in each group. Animals excluded from the groups were distributed to the Sham group.
On the next day of the grouping, models were prepared in accordance with Uchiide et al method, which was partially modified Vernon et al method. Rats were placed under inhalation anesthesia of 2% isoflurane, and made an incision in the abdomen along the midline, then the right uterine horn was excised and cut in half along the vertical line after removing the fat cells around the excised uterine horn. The uterine horn was made an incision along the horizontal axis to cut out two strips of approximately 5 mm×5 mm. The serosal surface of the abdominal cavity and the endometrial surface of the uterus strips were faced and sawed up the four corners thereof with a bioabsorbable suture (6-0, PDS-II, manufactured by Ethicon) to graft the uterine horns into the right and left abdominal walls one by one. In order to avoid adhesion, the abdominal cavity was washed with saline (manufactured by Otsuka Pharmaceutical Factory). Then, the abdominal wall fascia was sawed up with a bioabsorbable suture (4-0, monocryl, manufactured by Ethicon) and the skin was sawed up with a silk suture (4-0, blade silk, manufactured by Ethicon).
A required amount of SR16234 was weighed, pulverized with an agate mortar and pestle, and suspended in 0.5% carboxymethylcellulose sodium (CMC-Na) solution to prepare a 2 mg/mL solution, then used as undiluted solution. Preparation was performed using a volumetric flask. […]

MCP-1 = experiment: Gene expression analysis of endometrial implants (TaqMan), MCP-1; format: in vivo, rat; settings: corrected by GAPDH, n 6, E2 control 29.47 ± 20.81
Experimental: Total RNA was extracted […] the rat-derived endometrial graft (27 specimens), then quality of the RNA was inspected with a spectrophotometer and bio-analyzer, and then reverse transcription reaction of the RNA was performed, followed by gene expression analysis was performed according to TaqMan method.
RNA was extracted from the rat uterine horn strips and grafted uterine strip using the RNeasy Fibrous Tissue Mini Kit.
Concentration of the extracted RNA was measured with a NanaoDrop. Also RIN measurements using a bioanalyzer (6000 nano kits) was carried out. A 6000 pico-kit was used for bioanalyzing of the two samples with low yield (Sample ID: 202, 507).
cDNA obtained by reverse transcription reaction from 1000 ng/uL of commercially available Rat Tissue Universal Reference Total RNA (Catalog Number PR-UR-100, ZYAGEN Inc.) using SuperScript VILO Master Mix (hereinafter “Standard”) was used as a standard substance.
Based on the concentration measured with a spectrophotometer, reverse transcription reaction of the specimen with Super Script VILO Master Mix was performed to give 50 ng/uL of cDNA (the following example). […]
TaqMan reaction by using Step One Plus Real-Time PCR System was performed with standard 250, 62.5, 15.625, 3.9, 0.98 ng/well or sample 5.0 ng/well. A cycle of reaction, two minutes at 50° C. and 10 minutes at 95° C., followed by 15 seconds at 95° C. and one minute at 60° C., was repeated 40 cycles, then the fluorescence value FAM was measured in real time after the reaction at 60° C. In addition to the target eight genes, GAPDH gene as an internal control gene was measured. All the standards and samples were measured in triplicate.
From each of the two calibration curves (target gene, GAPDH gene) obtained from the standard, gene expressions level of the target gene and GAPDH gene of the sample was calculated, respectively. […] And then, an average gene expression level of the samples in each group was calculated, followed by the average gene expression level of the two groups was used as a standard to compare with each of the other groups.

## CCN(CC)Cc1ccc(OCC[C@H]2CC[C@H]3[C@@H]4[C@H](C)Cc5cc(O)ccc5[C@H]4CC[C@]23C)c(OC)c1 [SR16234, (7α)-21-[4-[(diethylamino)methyl]-2-methoxyphenoxy]-7-methyl-19-norpregna-1,3,5(10)-triene-3-ol]
[1]; 0.1 mg/kg p.o. 28 days
  Total wet weight of the grafted uterine strips: 0.3988 g
[1]; 0.1 mg/kg p.o. once a day for 28 days
  Suppression rate of grafted uterine strip weight (% ± SE): 36.4 ± 25.2%
[1]; 0.1 mg/kg p.o.
  Suppression rate of the grafted uterine strip (average value): 26%
[1]; 0.3 mg/kg p.o. 28 days
  Total wet weight of the grafted uterine strips: 0.3401 g
[1]; 0.3 mg/kg p.o. once a day for 28 days
  Suppression rate of grafted uterine strip weight (% ± SE): 63.2 ± 17.7%
[1]; 0.3 mg/kg p.o.
  Suppression rate of the grafted uterine strip (average value): 45%
[1]; 1.0 mg/kg administered group
  Suppression rate of the grafted uterine strip weight compared to the vehicle control group (in words): particularly significant suppression rate
  Total wet weight of the grafted uterine strips compared to the vehicle control group (in words): particularly significant suppression ratio
[1]; 1.0 mg/kg p.o. 28 days
  Total wet weight of the grafted uterine strips: 0.2647 g
[1]; 1.0 mg/kg p.o. once a day for 28 days
  Suppression rate of grafted uterine strip weight (% ± SE): 97.7 ± 21.2%
[1]; 1.0 mg/kg p.o.
  Suppression rate of the grafted uterine strip (average value): 68% and 69.0%
MCP-1; 0.1 mg/kg
  Expression level MCP-1: 41.95 ± 21.68 ng
MCP-1; 0.3 mg/kg
  Expression level MCP-1: 28.30 ± 10.93 ng
MCP-1; 1 mg/kg
  Expression level MCP-1: 26.70 ± 18.30 ng
